Measured values from ChEMBL document CHEMBL1201862, “PubChem BioAssay data set” (2004).
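Following 48 hours of exposure in 96-well plates, responses at five concentrations were used to interpolate endpoints linearly. Abbreviation: GI50, concentration required for 50% inhibition of growth.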 The source made the active and inactive calls. Rule as the data show it: active = GI50 up to about 1.1 µM and inactive = higher.

Tests used:
Test in all cases: NCI-60 cell line screen, 48 h
SK-MEL-5 = system: SK-MEL-5
SNB-75 = system: SNB-75
LXFL 529 = system: LXFL 529
NCI-H226 = system: NCI-H226
M14 = system: M14
SNB-19 = system: SNB-19
K562 = system: K562
786-0 = system: 786-0
U-251 = system: U-251
SNB-78 = system: SNB-78
SK-MEL-28 = system: SK-MEL-28
RXF 393 = system: RXF 393
M19-MEL = system: M19-MEL
HOP-62 = system: HOP-62
OVCAR-5 = system: OVCAR-5
CAKI-1 = system: CAKI-1
SF-539 = system: SF-539
NCI-H460 = system: NCI-H460
XF498 = system: XF498
KM12 = system: KM12
IGROV-1 = system: IGROV-1
NCI-H23 = system: NCI-H23
CCRF-CEM = system: CCRF-CEM
OVCAR-4 = system: OVCAR-4
DMS-114 = system: DMS-114
UACC-62 = system: UACC-62
SW-620 = system: SW-620
HT-29 = system: HT-29
NCI-H522 = system: NCI-H522
OVCAR-8 = system: OVCAR-8
UACC-257 = system: UACC-257
TK-10 = system: TK-10
LOX IMVI = system: LOX IMVI
SK-MEL-2 = system: SK-MEL-2
SF-295 = system: SF-295
KM-20L2 = system: KM-20L2
Malme-3M = system: Malme-3M
DMS-273 = system: DMS-273
HCC 2998 = system: HCC 2998
DLD-1 = system: DLD-1
SR = system: SR
A498 = system: A498
EKVX = system: EKVX
SK-OV-3 = system: SK-OV-3
UO-31 = system: UO-31
SN12C = system: SN12C
MOLT-4 = system: MOLT-4
RXF 631 = system: RXF 631
HCT-116 = system: HCT-116
ACHN = system: ACHN
OVCAR-3 = system: OVCAR-3
HL-60 = system: HL-60
HOP-18 = system: HOP-18
A549 = system: A549
COLO 205 = system: COLO 205
RPMI-8226 = system: RPMI-8226
HOP-92 = system: HOP-92
SF-268 = system: SF-268

Measured: GI50

CCCC[C@H](CCc1ccccc1)N(C(=O)OC)N1CCC[C@H]1COC
inactive: SK-MEL-5 18.3 µM | SNB-75 35.1 µM | LXFL 529 17.2 µM | NCI-H226 20.2 µM | M14 26 µM | SNB-19 16.4 µM | K562 21.7 µM | 786-0 21.4 µM | U-251 15.4 µM | SNB-78 21.3 µM | SK-MEL-28 19.9 µM | RXF 393 18.1 µM | M19-MEL 20.1 µM | HOP-62 23 µM | OVCAR-5 17.8 µM | CAKI-1 29.9 µM | SF-539 18 µM | NCI-H460 17.1 µM | XF498 14 µM | KM12 18.8 µM | IGROV-1 20.9 µM | NCI-H23 17.2 µM | CCRF-CEM 15.5 µM | OVCAR-4 17.5 µM | DMS-114 15.8 µM | UACC-62 16 µM | SW-620 16.3 µM | HT-29 15.1 µM | NCI-H522 14.1 µM | OVCAR-8 27.5 µM | UACC-257 18 µM | TK-10 26.4 µM | LOX IMVI 18.3 µM | SK-MEL-2 18.5 µM | SF-295 18.7 µM | KM-20L2 15.1 µM | Malme-3M 16.3 µM | DMS-273 18.7 µM | HCC 2998 14.6 µM | DLD-1 18.4 µM | SR 24.3 µM | A498 18.1 µM | EKVX 17.5 µM | SK-OV-3 24.1 µM | UO-31 16.7 µM | SN12C 17.9 µM | MOLT-4 24.2 µM | RXF 631 16.9 µM | HCT-116 13.6 µM | ACHN 16.8 µM | OVCAR-3 18.3 µM | HL-60 46.7 µM | HOP-18 27.2 µM | A549 24.8 µM | COLO 205 16.3 µM | RPMI-8226 31.6 µM | HOP-92 18.6 µM | SF-268 19.5 µM
